Data on 4 molecules can be found in article PMC6467514 (Chembiochem : a European journal of chemical biology, 2019).

Assay [1] has as its target T1, adenosine deaminase (ADA) (Bos taurus, UniProt P56658).
T1 sequence (P56658 2-363): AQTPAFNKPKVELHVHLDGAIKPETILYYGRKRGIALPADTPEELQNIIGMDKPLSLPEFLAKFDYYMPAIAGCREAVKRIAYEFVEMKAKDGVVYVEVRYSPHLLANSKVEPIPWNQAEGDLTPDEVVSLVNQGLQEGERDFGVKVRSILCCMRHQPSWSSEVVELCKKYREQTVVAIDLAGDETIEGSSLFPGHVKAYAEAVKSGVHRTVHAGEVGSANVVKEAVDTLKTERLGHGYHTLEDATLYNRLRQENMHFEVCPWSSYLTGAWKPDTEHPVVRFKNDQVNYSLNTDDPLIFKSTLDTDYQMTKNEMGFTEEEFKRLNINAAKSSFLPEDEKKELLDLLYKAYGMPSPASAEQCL
Description: fluorescence assay of tzA to tzI deamination, IC50 with Hill fit. In kind it is biochemical.

Assay [2] concerns the target T1, adenosine deaminase (ADA). Described as above. The format is biochemical. This is another data set of the same source.
The target of assay [3] is T1, adenosine deaminase (ADA). As to the kind of experiment: biochemical.
The target in assay [4] is T1, adenosine deaminase (ADA). As to the kind of experiment: stopped-flow fluorescence kinetics of deamination to tzG. The format is biochemical.

`CNc1cc(Cl)nc2c1ncn2[C@@H]1O[C@H](CO)[C@@H](O)[C@H]1O` [compound 8, 5-chloro-7-methylamino-1-deaza-purine riboside] showed an IC50 in assay [1] of 21 ± 8 µM.
In assay [2], `OC[C@H]1O[C@@H](n2cnc3c(NCc4ccccc4)cc(Cl)nc32)[C@H](O)[C@@H]1O` [compound 11, 5-chloro-7-benzylamino-1-deaza-purine riboside] came in with an IC50 of 220 ± 70 µM.
Regarding `CCCCCC[C@H]([C@H](C)O)n1cnc2c(N)ncnc21` [EHNA], the 50% inhibitory concentration (IC50) in assay [3] is 0.0232 ± 0.0042 µM.
`Nc1nc(N)c2nsc([C@@H]3O[C@H](CO)[C@@H](O)[C@H]3O)c2n1` [tz2-AA]: the “stopped-flow fluorescence kinetics of deamination to tzG” value in assay [4] is listed as “the ^tz2-AA HMM curve showed parabolic behaviour with increasing substrate concentration”.

As usually defined, the IC50 is the concentration that gives 50% inhibition. Higher therefore signals weaker potency in that assay.
